Measurements as given in patent publication US8507535B2 (Hoffmann-La Roche Inc., priority 2010, dated 2013).
Where two headings read alike, the source gives them in different places.

Molecular target: human NK3 receptor (Homo sapiens (Human), UniProt P29371)
Experiment: [3H]SR142801 competition binding assay
Details: membranes from HEK293 cells transiently expressing recombinant human NK3 receptor, [3H]SR142801 radioligand
Description: [^3H]SR142801 Competition Binding Assay
hNK3 receptor binding experiment were performed using [^3H]SR142801 (Catalog No. TRK1035, specific activity: 74.0 Ci/mmol, Amersham, GE Healthcare UK limited, Buckinghamshire, UK) and membrane isolated from HEK293 cells transiently expressing recombinant human NK3 receptor. After thawing, the membrane homogenates were centrifuged at 48,000×g for 10 min at 4° C., the pellets were resuspended in the 50 mM Tris-HCl, 4 mM MnCl2, 1 μM phosphoramidon, 0.1% BSA binding buffer at pH 7.4 to a final assay concentration of 5 μg protein/well. For inhibition experiments, membranes were incubated with [^3H]SR142801 at a concentration equal to KD value of radioligand and 10 concentrations of the inhibitory compound (0.0003-10 μM) (in a total reaction volume of 500 μl) for 75 min at room temperature (RT). At the end of the incubation, membranes were filtered onto unitfilter (96-well white microplate with bonded GF/C filter preincubated 1 h in 0.3% PEI+0.3% BSA, Packard BioScience, Meriden, Conn.) with a Filtermate 196 harvester (Packard BioScience) and washed 4 times with ice-cold 50 mM Tris-HCl, pH 7.4 buffer. Nonspecific binding was measured in the presence of 10 μM SB222200 for both radioligands. The radioactivity on the filter was counted (5 min) on a Packard Top-count microplate scintillation counter with quenching correction after addition of 45 μl of microscint 40 (Can berra Packard S. A., Zurich, Switzerland) and shaking for 1 h. Inhibition curves were fitted according to the Hill equation: y=100/(1+(x/IC50)^nH), where nH=slope factor using Excel-fit 4 software (Microsoft). IC50 values were derived from the inhibition curve and the affinity constant (Ki) values were calculated using the Cheng-Prussoff equation Ki=IC50/(1+[L]/KD) where [L] is the concentration of radioligand and KD is its dissociation constant at the receptor, derived from the saturation isotherm. All experiments were performed in duplicate and the mean±standard error (SEM) of the individual Ki values was calculated.

[1] = second half of table, head prints nM, read-out: Ki (nM) hNK3

human NK3 receptor, sequence (P29371 whole entry): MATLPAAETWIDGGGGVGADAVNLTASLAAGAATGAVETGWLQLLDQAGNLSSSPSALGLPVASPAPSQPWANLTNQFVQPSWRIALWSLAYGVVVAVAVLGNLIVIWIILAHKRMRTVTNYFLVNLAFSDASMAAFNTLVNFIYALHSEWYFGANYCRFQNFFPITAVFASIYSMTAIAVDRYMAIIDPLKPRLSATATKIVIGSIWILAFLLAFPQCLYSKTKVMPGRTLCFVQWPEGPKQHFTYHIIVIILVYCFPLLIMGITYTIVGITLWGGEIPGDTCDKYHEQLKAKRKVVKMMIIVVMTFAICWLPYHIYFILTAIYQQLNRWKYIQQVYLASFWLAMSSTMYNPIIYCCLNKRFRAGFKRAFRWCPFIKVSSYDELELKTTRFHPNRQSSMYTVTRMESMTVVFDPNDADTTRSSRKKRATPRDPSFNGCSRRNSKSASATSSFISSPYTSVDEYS

Row | SMILES | Ki (read-out: Ki (uM) hNK3) [µM] | Ki [1] [µM]
1 | C[C@]1(COc2ccc(Cl)cn2)CN(C(=O)N2CCN(S(C)(=O)=O)CC2)C[C@@H]1c1ccc(Cl)cc1 (racemic) [Example 2, [(3RS,4RS)-4-(4-Chloro-phenyl)-3-(5-chloro-pyridin-2-yloxymethyl)-3-methyl-pyrrolidin-1-yl]-(4-methanesulfonyl-piperazin-1-yl)-methanone] | 0.0478 | –
2 | CC1(C(=O)N2CCC(C(=O)N3C[C@H](c4ccc(Cl)cc4)[C@@](C)(COc4ccc(Cl)cn4)C3)CC2)CC1 (racemic) [Example 3, [(3RS,4RS)-4-(4-Chloro-phenyl)-3-(5-chloro-pyridin-2-yloxymethyl)-3-methyl-pyrrolidin-1-yl]-[1-(1-methyl-cyclopropanecarbonyl)-piperidin-4-yl]-methanone] | 0.0072 | –
3 | C[C@]1(COc2ccc(Cl)cn2)CN(C(=O)c2ccnc(Cl)c2)C[C@@H]1c1ccc(Cl)cc1 (racemic) [Example 5] | 0.0618 | –
4 | C[C@]1(COc2ccc(Cl)cn2)CN(C(=O)c2ccc(-n3cccn3)nc2)C[C@@H]1c1ccc(Cl)cc1 (racemic) [Example 6, [(3RS,4RS)-4-(4-Chloro-phenyl)-3-(5-chloro-pyridin-2-yloxymethyl)-3-methyl-pyrrolidin-1-yl]-(6-pyrazol-1-yl-pyridin-3-yl)-methanone] | 0.0352 | –
5 | Cc1noc(-c2ccc(C(=O)N3C[C@H](c4ccc(Cl)cc4)[C@@](C)(COc4ccc(Cl)cn4)C3)cc2)n1 (racemic) [Example 7, [(3RS,4RS)-4-(4-Chloro-phenyl)-3-(5-chloro-pyridin-2-yloxymethyl)-3-methyl-pyrrolidin-1-yl]-[4-(3-methyl-[1,2,4]oxadiazol-5-yl)-phenyl]-methanone] | 0.0043 | –
6 | C[C@]1(COc2ccc(Cl)cn2)CN(C(=O)c2ccc(C#N)cc2)C[C@@H]1c1ccc(Cl)cc1 (racemic) [Example 8, 4-[(3RS,4RS)-4-(4-Chloro-phenyl)-3-(5-chloro-pyridin-2-yloxymethyl)-3-methyl-pyrrolidine-1-carbonyl]-benzonitrile] | 0.0451 | –
7 | COc1ccc(C(=O)N2C[C@H](c3ccc(Cl)cc3)[C@@](C)(COc3ccc(Cl)cn3)C2)cn1 (racemic) [Example 9, [(3RS,4RS)-4-(4-Chloro-phenyl)-3-(5-chloro-pyridin-2-yloxymethyl)-3-methyl-pyrrolidin-1-yl]-(6-methoxy-pyridin-3-yl)-methanone] | 0.0563 | –
8 | C[C@]1(COc2ccc(Cl)cn2)CN(C(=O)C2CCOCC2)C[C@@H]1c1ccc(Cl)cc1 (racemic) [Example 10, [(3RS,4RS)-4-(4-Chloro-phenyl)-3-(5-chloro-pyridin-2-yloxymethyl)-3-methyl-pyrrolidin-1-yl]-(tetrahydro-pyran-4-yl)-methanone] | 0.0874 | –
9 | CC(=O)N1CCC(C(=O)N2C[C@H](c3ccc(Cl)cc3)[C@@](C)(COc3ccc(Cl)cn3)C2)CC1 (racemic) [Example 11, 1-{4-[(3RS,4RS)-4-(4-Chloro-phenyl)-3-(5-chloro-pyridin-2-yloxymethyl)-3-methyl-pyrrolidine-1-carbonyl]-piperidin-1-yl}-ethanone] | 0.0106 | –
10 | CC(C)CN1CCC(C(=O)N2C[C@H](c3ccc(Cl)cc3)[C@@](C)(COc3ccc(Cl)cn3)C2)CC1 (racemic) [Example 12, [(3RS,4RS)-4-(4-Chloro-phenyl)-3-(5-chloro-pyridin-2-yloxymethyl)-3-methyl-pyrrolidin-1-yl]-(1-isobutyl-piperidin-4-yl)-methanone] | 0.0225 | –
11 | CC(C)C(=O)N1CCC(C(=O)N2C[C@H](c3ccc(Cl)cc3)[C@@](C)(COc3ccc(Cl)cn3)C2)CC1 (racemic) [Example 13, 1-{4-[(3RS,4RS)-4-(4-Chloro-phenyl)-3-(5-chloro-pyridin-2-yloxymethyl)-3-methyl-pyrrolidine-1-carbonyl]-piperidin-1-yl}-2-methyl-propan-1-one] | 0.0087 | –
12 | C[C@]1(COc2ccc(Cl)cn2)CN(C(=O)C2CCN(C3CCCCC3)CC2)C[C@@H]1c1ccc(Cl)cc1 (racemic) [Example 14, [(3RS,4RS)-4-(4-Chloro-phenyl)-3-(5-chloro-pyridin-2-yloxymethyl)-3-methyl-pyrrolidin-1-yl]-(1-cyclohexyl-piperidin-4-yl)-methanone] | 0.015 | –
13 | Cc1ccc(N2CCC(C(=O)N3C[C@H](c4ccc(Cl)cc4)[C@@](C)(COc4ccc(Cl)cn4)C3)CC2)nc1 (racemic) [Example 15, [(3RS,4RS)-4-(4-Chloro-phenyl)-3-(5-chloro-pyridin-2-yloxymethyl)-3-methyl-pyrrolidin-1-yl]-(5′-methyl-3,4,5,6-tetrahydro-2H-[1,2′]bipyridinyl-4-yl)-methanone] | – | 0.015
14 | C[C@]1(COc2ccc(Cl)cn2)CN(C(=O)C2CCN(c3ccc(C#N)cn3)CC2)C[C@@H]1c1ccc(Cl)cc1 (racemic) [Example 16, 4-[(3RS,4RS)-4-(4-Chloro-phenyl)-3-(5-chloro-pyridin-2-yloxymethyl)-3-methyl-pyrrolidine-1-carbonyl]-3,4,5,6-tetrahydro-2H-[1,2′]bipyridinyl-5′-carbonitrile] | – | 0.0037
15 | C[C@]1(COc2ccc(Cl)cn2)CN(C(=O)C2CCN(c3ccc(C#N)cc3)CC2)C[C@@H]1c1ccc(Cl)cc1 (racemic) [Example 17, 4-{4-[(3RS,4RS)-4-(4-Chloro-phenyl)-3-(5-chloro-pyridin-2-yloxymethyl)-3-methyl-pyrrolidine-1-carbonyl]-piperidin-1-yl}-benzonitrile] | – | 0.0023
16 | CC(=O)c1ccc(N2CCC(C(=O)N3C[C@H](c4ccc(Cl)cc4)[C@@](C)(COc4ccc(Cl)cn4)C3)CC2)nc1 (racemic) [Example 18, 1-{4-[(3RS,4RS)-4-(4-Chloro-phenyl)-3-(5-chloro-pyridin-2-yloxymethyl)-3-methyl-pyrrolidine-1-carbonyl]-3,4,5,6-tetrahydro-2H-[1,2′]bipyridinyl-5′-yl}-ethanone] | – | 0.0059
17 | C[C@]1(COc2ccc(Cl)cn2)CN(C(=O)C2CCN(c3ccc(F)cn3)CC2)C[C@@H]1c1ccc(Cl)cc1 (racemic) [Example 19, [(3RS,4RS)-4-(4-Chloro-phenyl)-3-(5-chloro-pyridin-2-yloxymethyl)-3-methyl-pyrrolidin-1-yl]-(5′-fluoro-3,4,5,6-tetrahydro-2H-[1,2′]bipyridinyl-4-yl)-methanone] | – | 0.0112
18 | C[C@]1(COc2ccc(Cl)cn2)CN(C(=O)C2CCN(c3ccc(Cl)cn3)CC2)C[C@@H]1c1ccc(Cl)cc1 (racemic) [Example 20, [(3RS,4RS)-4-(4-Chloro-phenyl)-3-(5-chloro-pyridin-2-yloxymethyl)-3-methyl-pyrrolidin-1-yl]-(5′-chloro-3,4,5,6-tetrahydro-2H-[1,2′]bipyridinyl-4-yl)-methanone] | – | 0.0193
19 | C[C@]1(COc2ccc(Cl)cn2)CN(C(=O)c2ccc(C#N)nc2)C[C@@H]1c1ccc(Cl)cc1 (racemic) [Example 21, 5-[(3RS,4RS)-4-(4-Chloro-phenyl)-3-(5-chloro-pyridin-2-yloxymethyl)-3-methyl-pyrrolidine-1-carbonyl]-pyridine-2-carbonitrile] | – | 0.039
20 | C[C@]1(COc2ccc(Cl)cn2)CN(C(=O)C2CCN(c3ccc(C(F)(F)F)cn3)CC2)C[C@@H]1c1ccc(Cl)cc1 (racemic) [Example 22, [(3RS,4RS)-4-(4-Chloro-phenyl)-3-(5-chloro-pyridin-2-yloxymethyl)-3-methyl-pyrrolidin-1-yl]-(5′-trifluoromethyl-3,4,5,6-tetrahydro-2H-[1,2′]bipyridinyl-4-yl)-methanone] | – | 0.0272
21 | Cc1nc(-c2ccc(C(=O)N3C[C@H](c4ccc(Cl)cc4)[C@@](C)(COc4ccc(Cl)cn4)C3)cc2)no1 (racemic) [Example 24, [(3RS,4RS)-4-(4-Chloro-phenyl)-3-(5-chloro-pyridin-2-yloxymethyl)-3-methyl-pyrrolidin-1-yl]-[4-(5-methyl-[1,2,4]oxadiazol-3-yl)-phenyl]-methanone] | – | 0.0261
22 | C[C@]1(COc2ccc(Cl)cn2)CN(C(=O)C2CCN(c3ccc(C#N)nc3)CC2)C[C@@H]1c1ccc(Cl)cc1 (racemic) [Example 25, 4-[(3RS,4RS)-4-(4-Chloro-phenyl)-3-(5-chloro-pyridin-2-yloxymethyl)-3-methyl-pyrrolidine-1-carbonyl]-3,4,5,6-tetrahydro-2H-[1,3′]bipyridinyl-6′-carbonitrile] | – | 0.0044
23 | C[C@]1(COc2ccc(Cl)cn2)CN(C(=O)c2ccc(N3CCCCC3=O)cc2)C[C@@H]1c1ccc(Cl)cc1 (racemic) [Example 27, 1-{4-[(3RS,4RS)-4-(4-Chloro-phenyl)-3-(5-chloro-pyridin-2-yloxymethyl)-3-methyl-pyrrolidine-1-carbonyl]-phenyl}-piperidin-2-one] | – | 0.0931
